Values after ≈ are worked out from the molar mass of the structure shown.
Experiments:
[1] = tested on: Escherichia coli; assay: Antibacterial activity against Escherichia coli BW25113 assessed as reduction in bacterial growth incubated for 20 hrs by resazurin microtitre assay; assay type: functional
[2] = molecular target: T1, Multidrug efflux pump subunit AcrB (Escherichia coli (strain K12)) (UniProt P31224); assay: Inhibition of AcrB in Escherichia coli BW25113 assessed as potentiation of pyridomycin-induced antibacterial activity incubated for 20 hrs by resazurin microtitre assay
T1 sequence (whole entry): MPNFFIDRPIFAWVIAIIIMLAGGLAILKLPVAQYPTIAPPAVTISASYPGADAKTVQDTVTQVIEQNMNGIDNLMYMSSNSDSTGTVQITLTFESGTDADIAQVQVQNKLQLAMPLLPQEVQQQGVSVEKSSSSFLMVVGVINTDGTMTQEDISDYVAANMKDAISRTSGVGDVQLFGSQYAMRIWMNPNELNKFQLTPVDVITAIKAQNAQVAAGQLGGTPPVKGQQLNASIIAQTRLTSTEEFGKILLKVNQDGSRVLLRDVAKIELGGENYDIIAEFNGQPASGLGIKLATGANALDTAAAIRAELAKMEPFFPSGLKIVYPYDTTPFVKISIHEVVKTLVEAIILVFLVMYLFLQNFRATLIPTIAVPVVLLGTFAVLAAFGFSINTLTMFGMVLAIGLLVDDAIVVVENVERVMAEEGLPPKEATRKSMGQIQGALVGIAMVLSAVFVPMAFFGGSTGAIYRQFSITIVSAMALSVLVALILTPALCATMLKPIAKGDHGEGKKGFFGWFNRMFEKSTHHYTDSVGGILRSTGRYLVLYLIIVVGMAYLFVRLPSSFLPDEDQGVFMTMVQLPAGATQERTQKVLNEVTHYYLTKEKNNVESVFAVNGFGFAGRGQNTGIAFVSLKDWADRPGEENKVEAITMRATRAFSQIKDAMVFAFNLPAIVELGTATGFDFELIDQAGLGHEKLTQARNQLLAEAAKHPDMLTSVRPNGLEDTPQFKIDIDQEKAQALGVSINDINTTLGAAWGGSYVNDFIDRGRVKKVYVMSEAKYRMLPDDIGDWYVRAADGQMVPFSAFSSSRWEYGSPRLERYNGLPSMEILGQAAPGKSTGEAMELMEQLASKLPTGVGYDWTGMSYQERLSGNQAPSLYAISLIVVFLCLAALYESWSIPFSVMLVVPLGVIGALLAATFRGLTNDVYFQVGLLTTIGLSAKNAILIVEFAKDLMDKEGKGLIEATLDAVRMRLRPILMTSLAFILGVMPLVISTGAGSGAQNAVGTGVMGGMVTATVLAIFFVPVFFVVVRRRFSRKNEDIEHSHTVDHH

[3] = Solubility of compound in DMSO at > 125 uM; assay type: physicochemical
[4] = tested on: Escherichia coli; assay: Antibacterial activity against Escherichia coli BW25113 harboring acrB deletion mutant assessed as reduction in bacterial growth incubated for 20 hrs by resazurin microtitre assay; assay type: functional
[5] = molecular target: T1, Multidrug efflux pump subunit AcrB (Escherichia coli (strain K12)); assay: Inhibition of AcrB in Escherichia coli BW25113 assessed as potentiation of pyridomycin-induced antibacterial activity incubated for 5 hrs by resazurin reduction assay
[6] = tested on: Escherichia coli; assay: Antibacterial activity against Escherichia coli BW25113 assessed as reduction in bacterial growth incubated for 5 hrs by resazurin reduction assay; assay type: functional
[7] = tested on: Escherichia coli; assay: Inhibition of AcrB Glu947Gln mutant in Escherichia coli BW25113 assessed as potentiation of pyridomycin-induced antibacterial activity incubated for 20 hrs by resazurin microtitre assay
[8] = tested on: Escherichia coli; assay: Inhibition of AcrB Ala446Pro mutant in Escherichia coli BW25113 assessed as potentiation of pyridomycin-induced antibacterial activity incubated for 20 hrs by resazurin microtitre assay
[9] = tested on: Escherichia coli; assay: Inhibition of AcrB Ser450Pro mutant in Escherichia coli BW25113 assessed as potentiation of pyridomycin-induced antibacterial activity incubated for 20 hrs by resazurin microtitre assay
[10] = tested on: Escherichia coli; assay: Inhibition of AcrB Asp951Asn mutant in Escherichia coli BW25113 assessed as potentiation of pyridomycin-induced antibacterial activity incubated for 20 hrs by resazurin microtitre assay
[11] = tested on: Escherichia coli; assay: Selectivity ratio of EC90 for inhibition of AcrB Glu947Gln mutant in Escherichia coli BW25113 to inhibition of AcrB in Escherichia coli BW25113 incubated for 20 hrs by resazurin microtitre assay
[12] = tested on: Escherichia coli; assay: Selectivity ratio of EC90 for inhibition of AcrB Asp951Asn mutant in Escherichia coli BW25113 to inhibition of AcrB in Escherichia coli BW25113 incubated for 20 hrs by resazurin microtitre assay
[13] = tested on: Escherichia coli; assay: Potentiation of chloramphenicol induced antibacterial activity in Escherichia coli BW25113 assessed as chloramphenicol MIC at 100 uM incubated for 20 hrs by resazurin microtitre assay (reference value: 8 ug/ml); assay type: functional
[14] = tested on: Escherichia coli; assay: Potentiation of oxacillin induced antibacterial activity in Escherichia coli BW25113 assessed as oxacillin MIC at 100 uM incubated for 20 hrs by resazurin microtitre assay (Rvb > 128 ug/ml); assay type: functional
[15] = tested on: Escherichia coli; assay: Potentiation of piperacillin induced antibacterial activity in Escherichia coli BW25113 assessed as piperacillin MIC at 100 uM incubated for 20 hrs by resazurin microtitre assay (reference value: 4 ug/ml); assay type: functional
[16] = tested on: Escherichia coli; assay: Potentiation of fusidic acid induced antibacterial activity in Escherichia coli BW25113 assessed as fusidic acid MIC at 100 uM incubated for 20 hrs by resazurin microtitre assay (Rvb > 128 ug/ml); assay type: functional
[17] = tested on: Escherichia coli; assay: Potentiation of novobiocin induced antibacterial activity in Escherichia coli BW25113 assessed as novobiocin MIC at 100 uM incubated for 20 hrs by resazurin microtitre assay (reference value: 80 ug/ml); assay type: functional
[18] = tested on: Escherichia coli; assay: Potentiation of linezolid induced antibacterial activity in Escherichia coli BW25113 assessed as linezolid MIC at 100 uM incubated for 20 hrs by resazurin microtitre assay (Rvb > 128 ug/ml); assay type: functional
[19] = tested on: Escherichia coli; assay: Potentiation of erythromycin induced antibacterial activity in Escherichia coli BW25113 assessed as erythromycin MIC at 100 uM incubated for 20 hrs by resazurin microtitre assay (reference value: 128 ug/ml); assay type: functional
[20] = tested on: Escherichia coli; assay: Potentiation of ciprofloxacin induced antibacterial activity in Escherichia coli BW25113 assessed as ciprofloxacin MIC at 100 uM incubated for 20 hrs by resazurin microtitre assay (reference value: 0.01 ug/ml); assay type: functional
[21] = tested on: Escherichia coli; assay: Potentiation of chloramphenicol induced antibacterial activity in Escherichia coli BW25113 assessed as fold change in chloramphenicol MIC at 100 uM incubated for 20 hrs by resazurin microtitre assay; assay type: functional
[22] = tested on: Escherichia coli; assay: Potentiation of oxacillin induced antibacterial activity in Escherichia coli BW25113 assessed as fold change in oxacillin MIC at 100 uM incubated for 20 hrs by resazurin microtitre assay; assay type: functional
[23] = tested on: Escherichia coli; assay: Potentiation of piperacillin induced antibacterial activity in Escherichia coli BW25113 assessed as fold change in piperacillin MIC at 100 uM incubated for 20 hrs by resazurin microtitre assay; assay type: functional
[24] = tested on: Escherichia coli; assay: Potentiation of fusidic acid induced antibacterial activity in Escherichia coli BW25113 assessed as fold change in fusidic acid MIC at 100 uM incubated for 20 hrs by resazurin microtitre assay; assay type: functional
[25] = tested on: Escherichia coli; assay: Potentiation of novobiocin induced antibacterial activity in Escherichia coli BW25113 assessed as fold change in novobiocin MIC at 100 uM incubated for 20 hrs by resazurin microtitre assay; assay type: functional
[26] = tested on: Escherichia coli; assay: Potentiation of linezolid induced antibacterial activity in Escherichia coli BW25113 assessed as fold change in linezolid MIC at 100 uM incubated for 20 hrs by resazurin microtitre assay; assay type: functional
[27] = tested on: Escherichia coli; assay: Potentiation of erythromycin induced antibacterial activity in Escherichia coli BW25113 assessed as fold change in erythromycin MIC at 100 uM incubated for 20 hrs by resazurin microtitre assay; assay type: functional
[28] = tested on: Escherichia coli; assay: Potentiation of ciprofloxacin induced antibacterial activity in Escherichia coli BW25113 assessed as fold change in ciprofloxacin MIC at 100 uM incubated for 20 hrs by resazurin microtitre assay; assay type: functional
[29] = Solubility of compound in PBS at pH 7.4 incubated for 24 hrs by LC-MS/MS analysis; assay type: physicochemical
[30] = Stability in mouse plasma assessed as half life at 10 uM measured up to 360 mins by LC-MS/MS analysis; assay type: ADME, cell-free
[31] = Stability in CD-1 mouse liver microsomes assessed as half life at 1 uM measured up to 40 mins by LC-MS/MS analysis; assay type: ADME, Microsome
[32] = Stability in CD-1 mouse liver microsomes assessed as intrinsic clearance at 1 uM measured up to 40 mins by LC-MS/MS analysis; assay type: ADME, Microsome; conditions: read-out: CLH
[33] = molecular target: T1, Multidrug efflux pump subunit AcrB (Escherichia coli (strain K12)); assay: Potency index, ratio of BDM88832 EC90 to test compound EC90 for inhibition of AcrAB-TolC in Escherichia coli BW25113

Compound	MIC [1]	EC90 [2] [µM]	EC90 [7] [µM]	EC90 [8] [µM]	EC90 [9] [µM]	EC90 [10] [µM]	Ratio [11]	Ratio [12]	MIC95 [13] [mg/L]	MIC95 [14] [mg/L]	MIC95 [15] [mg/L]	MIC95 [16] [mg/L]	MIC95 [17] [mg/L]	MIC95 [18] [mg/L]	MIC95 [19] [mg/L]	MIC95 [20] [mg/L]	fold change (FC) [21]	fold change (FC) [22]	fold change (FC) [23]	fold change (FC) [24]	further results
Cc1noc(-c2cnc(N3CCNCC3)c(Cl)c2)n1.Cl	> 125 µM	> 125	–	–	–	–	–	–	–	–	–	–	–	–	–	–	–	–	–	–	solubility [3]: Soluble
CC/C(C)=C1\OC(=O)[C@H](C)[C@H](O)[C@H](Cc2cccnc2)NC(=O)[C@@H](NC(=O)c2ncccc2O)[C@@H](C)OC1=O [PYRIDOMYCIN]	12.5 mg/L	–	–	–	–	–	–	–	–	–	–	–	–	–	–	–	–	–	–	–	MIC [4]: 0.78 mg/L (≈ 1.44 µM)
FC(F)(F)c1cnc(N2CCNCC2)c(Cl)c1	> 250 µM	–	–	–	–	–	–	–	–	–	–	–	–	–	–	–	–	–	–	–	EC90 [5]: 62 µM; MIC90 [6]: > 500 µM
Cl.Cl.NCCc1nc(-c2cnc(N3CCNCC3)c(Cl)c2)no1	> 250 µM	8	> 250	> 250	> 250	> 250	> 31	> 31	2	40	< 0.5	32	10	16	16	< 0.005	4	3	>8	4	fold change (FC) [25]: 8; fold change (FC) [26]: 8; fold change (FC) [27]: 8; fold change (FC) [28]: >2; solubility at 24 h [29]: > 200 µM; half-life at 10 µM [30]: > 6 h; half-life at 1 µM [31]: > 0.667 h; microsomal CLint at 1 µM [32]: < 2 µL/min/mg
Cl.Cl.NCc1cccc(OC(=O)c2cnc(N3CCNCC3)c(Cl)c2)c1	> 250 µM	0.6	> 62	> 62	> 62	62	> 103	103	2	5	< 0.5	5	1.2	8	4	< 0.005	4	>26	>8	>26	fold change (FC) [25]: 64; fold change (FC) [26]: >16; fold change (FC) [27]: 32; fold change (FC) [28]: >2; solubility at 24 h [29]: 180 µM; Ratio [33]: 20

From ChEMBL document CHEMBL5634076, “Optimization of pyridylpiperazine-based inhibitors of the Escherichia coli AcrAB-TolC efflux pump” (Eur J Med Chem, 2023)
